molecular target: Gamma-secretase; experiment: Inhibition of gamma secretase-mediated amyloid-beta peptid […]; type: protein-complex assay, Homo sapiens

Row | SMILES | IC50 [nM]
1 | O=C(NCCCn1ccnc1)OCC1CCCCN1S(=O)(=O)c1ccc(Cl)cc1 (configuration not stated) | 15400
2 | O=C(NCCCn1ccnc1)OCC1CCc2ccc(F)cc2N1S(=O)(=O)c1ccc(Cl)cc1 (configuration not stated) | 270
3 | CN1CCC(N(C)C2CCN(C(=O)OC[C@H]3CCC[C@@H](Cc4ccccc4)N3S(=O)(=O)c3ccc(Cl)cc3)CC2)CC1 (racemic) | 12300
4 | C[C@@H]1CCC[C@@H](COC(=O)NCCCn2ccnc2)N1S(=O)(=O)c1ccc(Cl)cc1 (relative stereo) | 6420
5 | C[C@@H]1CCC[C@H](COC(=O)N2CCC(N3CCCCC3)CC2)N1S(=O)(=O)c1ccc(Cl)cc1 (racemic) | 76
6 | O=C(OC[C@H]1CCC[C@@H](c2cc(F)ccc2F)N1S(=O)(=O)c1ccc(Cl)cc1)N1CCN(C2CCCCC2)CC1 (racemic) | 28
7 | CC1CCC2CCCCC2N1S(=O)(=O)c1ccc(Cl)cc1 (configuration not stated) | 2500
8 | O=C(OC[C@H]1CCC[C@@H](c2cccc(F)c2)N1S(=O)(=O)c1ccc(Cl)cc1)N1CCN(C2CCCCC2)CC1 (racemic) | 38
9 | CC[C@@H]1CCC[C@H](COC(=O)N2CCC(N(C)C3CCN(C)CC3)CC2)N1S(=O)(=O)c1ccc(Cl)cc1 (racemic) | 159
10 | O=C(OC[C@H]1CCC[C@@H](c2ccccc2)N1S(=O)(=O)c1ccc(Cl)cc1)N1CCN(C2CCCCC2)CC1 (racemic) | 67
11 | CC1CN(C2CCCCC2)CCN1C(=O)OC[C@H]1CCC[C@@H](c2ccccc2)N1S(=O)(=O)c1ccc(Cl)cc1 (mixture of isomers) | 71
12 | O=C(OC[C@H]1CCC[C@@H](Cc2ccccc2)N1S(=O)(=O)c1ccc(Cl)cc1)N1CCC(N2CCCCC2)CC1 (racemic) | 4770
13 | O=C(OCC1CCc2ccc(F)cc2N1S(=O)(=O)c1ccc(Cl)cc1)N1CCCC1 (configuration not stated) | 680
14 | C[C@@H]1CCC[C@@H](COC(=O)N2CCCC2)N1S(=O)(=O)c1ccc(Cl)cc1 (relative stereo) | 10600
15 | O=C(OC[C@H]1CCC[C@@H](c2cccc(F)c2)N1S(=O)(=O)c1ccc(Cl)cc1)N1CCC(N2CCCCC2)CC1 [listing 2 of 2 here] | 83
16 | C[C@@H]1CCC[C@H](COC(=O)N2CCCC2)N1S(=O)(=O)c1ccc(Cl)cc1 (relative stereo) | 1970
17 | C[C@@H]1CCC[C@H](COC(=O)NCCCn2ccnc2)N1S(=O)(=O)c1ccc(Cl)cc1 (relative stereo) | 570
18 | C[C@@H]1CCC[C@H](COC(=O)N2CCC(N(C)C3CCN(C)CC3)CC2)N1S(=O)(=O)c1ccc(Cl)cc1 (racemic) | 219
19 | CC1CN(CC2CC2)CCN1C(=O)OC[C@H]1CCC[C@@H](c2ccccc2)N1S(=O)(=O)c1ccc(Cl)cc1 (mixture of isomers) | 37
20 | O=C(OC[C@H]1CCC[C@@H](c2cc(F)cc(F)c2)N1S(=O)(=O)c1ccc(Cl)cc1)N1CCN(C2CCCCC2)CC1 (racemic) | 36

Molecules with a lower IC50, results first:

Row | IC50 [nM] | SMILES
21 | 3 | O=C(OC[C@H]1CCC[C@@H](c2cccc(F)c2)N1S(=O)(=O)c1ccc(Cl)cc1)N1CCC(N2CCCCC2)CC1 [listing 1 of 2 here]
22 | 26 | CC1CN(CC2CC2)CCN1C(=O)OC[C@H]1CCC[C@@H](c2cccc(F)c2)N1S(=O)(=O)c1ccc(Cl)cc1 (mixture of isomers)
23 | 10 | O=C(OC[C@H]1CCC[C@@H](c2cc(F)ccc2F)N1S(=O)(=O)c1ccc(Cl)cc1)N1CCC(N2CCCCC2)CC1 (racemic)
24 | 8 | O=C(OC[C@H]1CCC[C@@H](c2ccccc2F)N1S(=O)(=O)c1ccc(Cl)cc1)N1CCC(N2CCCCC2)CC1 (racemic)
25 | 13 | CC1CC(N2CCCCC2)CCN1C(=O)OC[C@H]1CCC[C@@H](c2cccc(F)c2)N1S(=O)(=O)c1ccc(Cl)cc1 (mixture of isomers)
26 | 16 | O=C(OC[C@H]1CCC[C@@H](c2ccccc2)N1S(=O)(=O)c1ccc(Cl)cc1)N1CCC(N2CCCCC2)CC1 (racemic)
27 | 4 | O=C(OC[C@H]1CCC[C@@H](c2cc(F)cc(F)c2)N1S(=O)(=O)c1ccc(Cl)cc1)N1CCC(N2CCCCC2)CC1 (racemic)
28 | 8 | O=C(OC[C@H]1CCC[C@@H](c2ccc(F)c(F)c2)N1S(=O)(=O)c1ccc(Cl)cc1)N1CCC(N2CCCCC2)CC1 (racemic)
29 | 17 | O=C(OC[C@H]1CCC[C@@H](c2ccccc2F)N1S(=O)(=O)c1ccc(Cl)cc1)N1CCN(C2CCCCC2)CC1 (racemic)
30 | 26 | O=C(OC[C@H]1CCC[C@@H](c2ccc(F)c(F)c2)N1S(=O)(=O)c1ccc(Cl)cc1)N1CCN(C2CCCCC2)CC1 (racemic)
31 | 7 | CC1CC(N2CCCCC2)CCN1C(=O)OC[C@H]1CCC[C@@H](c2cc(F)cc(F)c2)N1S(=O)(=O)c1ccc(Cl)cc1 (mixture of isomers)
32 | 11 | O=C(OC[C@H]1CCC[C@@H](c2cccc(F)c2)N1S(=O)(=O)c1ccc(Cl)cc1)N1CCC(N2CCCCC2)CC1 (racemic)

From ChEMBL document CHEMBL1146267, “2,6-Disubstituted N-arylsulfonyl piperidines as gamma-secretase inhibitors” (Bioorg Med Chem Lett, 2007)
